Entries after “also recorded” stand apart in the source; their conditions may differ. Read-outs that look alike come from different tables or passages of the source. Each block holds one compound with its values, some of them ahead of it.
How the values were obtained:
[1] = system: H146 cell line; test: Cell death assay; format: cell-based; conditions: for Concentration with a similar effect (>50% of H146 cells undergoing cell death): 24 hr treatment, trypan blue; for Potency in induction of cell death relative to 1 and 2: H146, 24 hr
[2] = system: multiple xenograft tumor models; conditions: cited from earlier work
[3] = system: H146 cancer cells; test: Western blot of PARP and caspase-3 cleavage in cells; format: cell-based; conditions: 24 hr
[4] = system: chronic lymphocytic leukemia; conditions: Phase I/II clinical trials; cited from earlier work
[5] = system: small cell lung cancer; conditions: Phase I/II clinical trials; cited from earlier work
[6] = system: H146 xenograft tumor model; conditions: well-tolerated dose-schedule, mice; cited from earlier work
[7] = molecular target: T1, Bcl-2 (Homo sapiens, UniProt P10415); conditions: read-out: Bcl-2 Ki; cited from earlier work
[8] = molecular target: T2, Bcl-xL (Homo sapiens, UniProt Q07817); conditions: read-out: Bcl-xL Ki; cited from earlier work
[9] = molecular target: Mcl-1 (Homo sapiens, UniProt Q07820); test: Fluorescence polarization competitive binding assay, Mcl-1; conditions: at concentrations as high as 5 μM
[10] = molecular target: T2, Bcl-xL; test: Fluorescence polarization competitive binding assay, Bcl-xL; conditions: for Times less potent than 5 in binding affinity to Bcl-xL: relative to compound 5
[11] = system: H1417 small-cell lung cancer cell line; test: Cell growth inhibition assay, H1417; format: cell-based; conditions: for Times less potent than 30 and 31 in inhibition of cell growth, H1417: relative to compounds 30 and 31
[12] = system: H146 small-cell lung cancer cell line; test: Cell growth inhibition assay, H146; format: cell-based; conditions: for Times less potent than 30 and 31 in inhibition of cell growth, H146: relative to compounds 30 and 31
[13] = system: H146 xenograft tumors; test: Pharmacodynamics: PARP and caspase-3 cleavage in xenograft tumor tissue; format: in vivo, SCID mice; conditions: single i.v. dose, 28 at 50 mg/kg or 30 at 25 mg/kg; 3- and 6-h time-points
[14] = system: H146 xenograft tumor model; test: Antitumor efficacy in H146 xenograft tumor model; format: in vivo, SCID mice; conditions: for Antitumor activity in H146 xenograft tumor model / Weight loss in tumor-bearing animals compared to the vehicle control: 28 at 50 mg/kg, 30 at 25 mg/kg, i.v., daily, 5 days a week for two weeks
[15] = Maximum tolerated dose determination; conditions: 75 mg/kg for 28, 50 mg/kg for 30, 25 mg/kg for 31
[16] = molecular target: T1, Bcl-2; test: Fluorescence polarization competitive binding assay, Bcl-2

Sequence of Mcl-1 (Q07820 whole entry): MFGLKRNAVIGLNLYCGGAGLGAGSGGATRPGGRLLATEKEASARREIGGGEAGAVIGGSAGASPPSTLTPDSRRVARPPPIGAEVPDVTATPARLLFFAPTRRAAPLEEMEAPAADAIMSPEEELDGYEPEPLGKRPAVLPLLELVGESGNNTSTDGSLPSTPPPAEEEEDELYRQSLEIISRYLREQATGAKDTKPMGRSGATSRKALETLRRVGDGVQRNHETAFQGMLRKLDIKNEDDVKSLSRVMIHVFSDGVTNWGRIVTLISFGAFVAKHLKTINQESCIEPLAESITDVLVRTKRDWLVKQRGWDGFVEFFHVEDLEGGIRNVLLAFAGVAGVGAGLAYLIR
T2 sequence (Q07817 whole entry): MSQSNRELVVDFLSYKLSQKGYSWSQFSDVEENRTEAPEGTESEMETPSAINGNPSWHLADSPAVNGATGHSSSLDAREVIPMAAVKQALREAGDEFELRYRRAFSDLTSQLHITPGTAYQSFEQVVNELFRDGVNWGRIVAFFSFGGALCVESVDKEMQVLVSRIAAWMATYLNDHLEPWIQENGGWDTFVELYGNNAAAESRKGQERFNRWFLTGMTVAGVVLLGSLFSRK
T1 sequence (P10415 whole entry): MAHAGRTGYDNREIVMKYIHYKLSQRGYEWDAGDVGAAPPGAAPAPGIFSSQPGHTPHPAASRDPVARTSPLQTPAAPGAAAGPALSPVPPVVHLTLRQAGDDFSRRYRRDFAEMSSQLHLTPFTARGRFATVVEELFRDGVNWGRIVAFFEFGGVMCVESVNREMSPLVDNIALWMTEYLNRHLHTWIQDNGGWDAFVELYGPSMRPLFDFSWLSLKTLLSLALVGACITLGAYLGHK

Structure (SMILES): CN(C)CC[C@H](CSc1ccccc1)Nc1ccc(S(=O)(=O)NC(=O)c2ccc(N3CCN(Cc4ccccc4-c4ccc(Cl)cc4)CC3)cc2)cc1[N+](=O)[O-] [Compound 1, reference compound]
- Concentration with a similar effect (>50% of H146 cells undergoing cell death) [1]: 30 to 100 nM
- Antitumor activity in xenograft tumor models [2]: efficiently induce tumor regression

Structure (SMILES): CC1(C)CCC(c2ccc(Cl)cc2)=C(CN2CCN(c3ccc(C(=O)NS(=O)(=O)c4ccc(N[C@H](CCN5CCOCC5)CSc5ccccc5)c(S(=O)(=O)C(F)(F)F)c4)cc3)CC2)C1 [Compound 2]
- Concentration with a similar effect (>50% of H146 cells undergoing cell death) [1]: 30 to 100 nM
- Concentration inducing clear cleavage of PARP and activation of caspase-3 [3]: 30 nM
- Antitumor activity in xenograft tumor models [2]: efficiently induce tumor regression
- Antitumor activity in patients in chronic lymphocytic leukemia [4]: evidence of promising antitumor activity
- Single-agent activity in patients with small cell lung cancer [5]: very limited single-agent activity

- Binding to Mcl-1 [9]: no appreciable binding
Structure (SMILES): CCn1c(C)c(C(=O)O)c(-c2cccc(N3CCN(c4ccc(NS(=O)(=O)c5ccc(N[C@H](CCN(C)C)CSc6ccccc6)c([N+](=O)[O-])c5)cc4)CC3)c2)c1-c1ccc(Cl)cc1 [Compound 3]
- Antitumor activity in H146 xenograft model [6]: fails to achieve durable tumor regression
- Ki [7]: < 1 nM
- Ki [8]: < 1 nM

- Binding to Mcl-1 [9]: no appreciable binding
- Ki [10]: < 1 nM
Structure (SMILES): Cc1c(C(=O)O)c(-c2cccc(N3CCN(c4ccc(NS(=O)(=O)c5ccc(N[C@H](CCN(C)C)CSc6ccccc6)c([N+](=O)[O-])c5)cc4)CC3)c2)c(-c2ccc(Cl)cc2)n1C [Compound 4]

- Times less potent than 5 in binding affinity to Bcl-xL [10]: 30 times
Structure (SMILES): Cc1c(C(=O)NCCCN2CCN(C)CC2)c(-c2cccc(N3CCN(c4ccc(NS(=O)(=O)c5ccccc5)cc4)CC3)c2)c(-c2ccc(Cl)cc2)n1C [Compound 6, 5-(4-Chlorophenyl)-1,2-dimethyl-N-(3-(4-methylpiperazin-1-yl)propyl)-4-(3-(4-(4-(phenylsulfonamido)phenyl)piperazin-1-yl)phenyl)-1H-pyrrole-3-carboxamide]

- Times less potent than 5 in binding affinity to Bcl-xL [10]: slightly less potent than 5
Structure (SMILES): Cc1c(C(=O)NCCCN2CCN(C)CC2)c(-c2cccc(N3CCN(c4ccc(NS(=O)(=O)c5cccc(Br)c5)cc4)CC3)c2)c(-c2ccc(Cl)cc2)n1C [Compound 9, 5-(4-Chlorophenyl)-4-(3-(4-(4-(3-bromophenylsulfonamido)phenyl)piperazin-1-yl)phenyl) -1,2-dimethyl-N-(3-(4-methylpiperazin-1-yl)propyl)-1H-pyrrole-3-carboxamide]

- Times less potent than 5 in binding affinity to Bcl-xL [10]: as potent as 5
Structure (SMILES): Cc1c(C(=O)NCCCN2CCN(C)CC2)c(-c2cccc(N3CCN(c4ccc(NS(=O)(=O)c5cccc(S(=O)(=O)C(F)(F)F)c5)cc4)CC3)c2)c(-c2ccc(Cl)cc2)n1C [Compound 18, 5-(4-Chlorophenyl)-1,2-dimethyl-N-(3-(4-methylpiperazin-1-yl)propyl)-4-(3-(4-(4-(3-(trifluoromethylsulfonyl)phenylsulfonamido)phenyl)piperazin-1-yl)phenyl)-1H-pyrrole-3-carboxamide]

- Binding to Mcl-1 [9]: no appreciable binding
- Ki [10]: < 1 nM
Structure (SMILES): Cc1c(C(=O)O)c(-c2cccc(N3CCN(c4ccc(NS(=O)(=O)c5ccc(N[C@H](CCN(C)C)CSc6ccccc6)c(S(=O)(=O)C(F)(F)F)c5)cc4)CC3)c2)c(-c2ccc(Cl)cc2)n1C [Compound 22, (R)-5-(4-Chlorophenyl)-4-(3-(4-(4-(4-(4-(dimethylamino)-1-(phenylthio)butan-2-ylamino)-3-(trifluoromethylsulfonyl)phenylsulfonamido)phenyl)piperazin-1-yl)phenyl)-1,2-dimethyl-1H-pyrrole-3-carboxylic Acid]

Structure (SMILES): Cc1c(C(=O)O)c(-c2cccc(N3CCN(c4ccc(NS(=O)(=O)c5ccc(N[C@H](CCN6CCOCC6)CSc6ccccc6)c(S(=O)(=O)C(F)(F)F)c5)cc4)CC3)c2)c(-c2ccc(Cl)cc2)n1C [Compound 23, (R)-5-(4-Chlorophenyl)-1,2-dimethyl-4-(3-(4-(4-(4-(4-morpholino-1-(phenylthio)butan-2-ylamino)-3-(trifluoromethylsulfonyl)phenylsulfonamido)phenyl)piperazin-1-yl)phenyl)-1H-pyrrole-3-carboxylic Acid]
- Times less potent than 22 in inhibition of cell growth, H1417 ([11]; relative to compound 22): 3–5 times
- Times less potent than 22 in inhibition of cell growth, H146 ([12]; relative to compound 22): 3–5 times

Structure (SMILES): Cc1c(C(=O)O)c(-c2cccc(N3CCN(c4ccc(NS(=O)(=O)c5ccc(N[C@H](CCN6CCC(O)CC6)CSc6ccccc6)c(S(=O)(=O)C(F)(F)F)c5)cc4)CC3)c2)c(-c2ccc(Cl)cc2)n1C [Compound 28, (R)-5-(4-Chlorophenyl)-4-(3-(4-(4-(4-(4-(4-hydroxypiperidin-1-yl)-1-(phenylthio)butan-2-ylamino)-3-(trifluoromethylsulfonyl)phenylsulfonamido)phenyl)piperazin-1-yl)phenyl)-1,2-dimethyl-1H-pyrrole-3-carboxylic Acid]
- Potency in induction of cell death relative to 1 and 2 [1]: somewhat less potent than 1 and 2
- Concentration inducing clear cleavage of PARP and activation of caspase-3 [3]: 100 nM
- Cleavage of PARP and caspase-3 in H146 tumor tissues [13]: robust cleavage of PARP and caspase-3
- Antitumor activity in H146 xenograft tumor model [14]: effective in inhibition of tumor growth; also recorded: effectively inhibits tumor growth, it fails to induce tumor regression
- Weight loss in tumor-bearing animals compared to the vehicle control [14]: less than 10%
- Weight loss at higher doses [15]: more than 10%
- Ki [10]: < 1 nM

Structure (SMILES): CCn1c(C)c(C(=O)O)c(-c2cccc(N3CCN(c4ccc(NS(=O)(=O)c5ccc(N[C@H](CCN6CCC(O)CC6)CSc6ccccc6)c(S(=O)(=O)C(F)(F)F)c5)cc4)CC3)c2)c1-c1ccc(Cl)cc1 [Compound 30, (R)-5-(4-Chlorophenyl)-1-ethyl-4-(3-(4-(4-(4-(4-(4-hydroxypiperidin-1-yl)-1-(phenylthio)butan-2-ylamino)-3-(trifluoromethylsulfonyl)phenylsulfonamido)phenyl)piperazin-1-yl)phenyl)-2-methyl-1H-pyrrole-3-carboxylic Acid]
- Potency in induction of cell death relative to 1 and 2 [1]: several times more potent than 1 and 2
- Concentration inducing clear cleavage of PARP and activation of caspase-3 [3]: 10 nM
- Cleavage of PARP and caspase-3 in H146 tumor tissues [13]: robust cleavage of PARP and caspase-3
- Antitumor activity in H146 xenograft tumor model [14]: rapid, complete and durable tumor regression
- Weight loss in tumor-bearing animals compared to the vehicle control [14]: less than 10%
- Tumor-free mice at day 47 (15 days post-treatment) ([14]; 30 at 25 mg/kg i.v., 7 mice treated): all mice were tumor-free
- Weight loss at higher doses [15]: more than 10%
- Ki [16]: < 1 nM
- Ki [10]: < 1 nM

Structure (SMILES): Cc1c(C(=O)O)c(-c2cccc(N3CCN(c4ccc(NS(=O)(=O)c5ccc(N[C@H](CCN6CCC(O)CC6)CSc6ccccc6)c(S(=O)(=O)C(F)(F)F)c5)cc4)CC3)c2)c(-c2ccc(Cl)cc2)n1C(C)C [Compound 31, (R)-5-(4-Chlorophenyl)-4-(3-(4-(4-(4-(4-(4-hydroxypiperidin-1-yl)-1-(phenylthio)butan-2-ylamino)-3-(trifluoromethylsulfonyl)phenylsulfonamido)phenyl)piperazin-1-yl)phenyl)-1-isopropyl-2-methyl-1H-pyrrole-3-carboxylic Acid]
- Potency in induction of cell death relative to 1 and 2 [1]: several times more potent than 1 and 2
- Weight loss at higher doses [15]: more than 10%
- Ki [10]: < 1 nM

- Ki [10]: < 1 nM
Structure (SMILES): CCCn1c(C)c(C(=O)O)c(-c2cccc(N3CCN(c4ccc(NS(=O)(=O)c5ccc(N[C@H](CCN6CCC(O)CC6)CSc6ccccc6)c(S(=O)(=O)C(F)(F)F)c5)cc4)CC3)c2)c1-c1ccc(Cl)cc1 [Compound 32, (R)-5-(4-Chlorophenyl)-4-(3-(4-(4-(4-(4-(4-hydroxypiperidin-1-yl)-1-(phenylthio)butan-2-ylamino)-3-(trifluoromethylsulfonyl)phenylsulfonamido)phenyl)piperazin-1-yl)phenyl)-2-methyl-1-propyl-1H-pyrrole-3-carboxylic Acid]
- Times less potent than 30 and 31 in inhibition of cell growth, H1417 [11]: > 10 times
- Times less potent than 30 and 31 in inhibition of cell growth, H146 [12]: > 10 times

- Ki [10]: < 1 nM
Structure (SMILES): CCCCn1c(C)c(C(=O)O)c(-c2cccc(N3CCN(c4ccc(NS(=O)(=O)c5ccc(N[C@H](CCN6CCC(O)CC6)CSc6ccccc6)c(S(=O)(=O)C(F)(F)F)c5)cc4)CC3)c2)c1-c1ccc(Cl)cc1 [Compound 33, (R)-1-Butyl-5-(4-chlorophenyl)-4-(3-(4-(4-(4-(4-(4-hydroxypiperidin-1-yl)-1-(phenylthio)butan-2-ylamino)-3-(trifluoromethylsulfonyl)phenylsulfonamido)phenyl)piperazin-1-yl)phenyl)-2-methyl-1H-pyrrole-3-carboxylic acid]
- Times less potent than 30 and 31 in inhibition of cell growth, H1417 [11]: > 10 times
- Times less potent than 30 and 31 in inhibition of cell growth, H146 [12]: > 10 times
